The source of these data is patent US20080312268A1, “Substituted tricyclic piperidone compounds” (Gruenenthal GMBH, priority 2005, published 2008).

Counter-ions that a name gives are not always drawn.

The target of one series is T1, 5-HT re-uptake (Rattus norvegicus, UniProt P31652).
T1 construct: Synaptosomes from rat brain areas were freshly isolated for the purposes of these in-vitro studies; from tissue; host or cells: rat brain synaptosomes (P2 fraction), medulla and pons of male rats
Description: Measurement of serotonin re-uptake in rat brain synaptosomes. It is filed as biochemical. As to conditions: synaptosomes (P2 fraction) from medulla and pons region of male rat brains. On the procedure:
Synaptosomes from rat brain areas were freshly isolated for the purposes of these in-vitro studies. In each case a “P2” fraction was used, which was prepared in accordance with the instructions given by Gray and Whittaker (E. G. Gray und V. P. Whittaker (1962) J. Anat. 76, 79-88). For 5HT uptake these vesicular particles were isolated from the medulla and pons region of male rat brains.
(§1) A detailed description of the method can be found in the literature (M. Ch. Frink, H.-H. Hennies, W. Englberger, M. Haurand and B. Wilffert (1996) Arzneim.-Forsch./Drug Res. 46 (III), 11, 1029-1036).

The next series concerns the target T2, NA re-uptake (Rattus norvegicus, UniProt Q63380).
T2 construct: Synaptosomes from rat brain areas were freshly isolated for the purposes of these in-vitro studies; from tissue; host or cells: rat brain synaptosomes (P2 fraction), hypothalamus of male rats
Description: Measurement of noradrenalin re-uptake in rat brain synaptosomes. It is filed as biochemical. As to conditions: synaptosomes (P2 fraction) from hypothalamus of male rat brains. On the procedure: Synaptosomes from rat brain areas were freshly isolated for the purposes of these in-vitro studies. In each case a “P2” fraction was used, which was prepared in accordance with the instructions given by Gray and Whittaker (E. G. Gray und V. P. Whittaker (1962) J. Anat. 76, 79-88). For NA uptake these vesicular particles were isolated from the hypothalamus of male rat brains.
as §1

T1 sequence (P31652 whole entry): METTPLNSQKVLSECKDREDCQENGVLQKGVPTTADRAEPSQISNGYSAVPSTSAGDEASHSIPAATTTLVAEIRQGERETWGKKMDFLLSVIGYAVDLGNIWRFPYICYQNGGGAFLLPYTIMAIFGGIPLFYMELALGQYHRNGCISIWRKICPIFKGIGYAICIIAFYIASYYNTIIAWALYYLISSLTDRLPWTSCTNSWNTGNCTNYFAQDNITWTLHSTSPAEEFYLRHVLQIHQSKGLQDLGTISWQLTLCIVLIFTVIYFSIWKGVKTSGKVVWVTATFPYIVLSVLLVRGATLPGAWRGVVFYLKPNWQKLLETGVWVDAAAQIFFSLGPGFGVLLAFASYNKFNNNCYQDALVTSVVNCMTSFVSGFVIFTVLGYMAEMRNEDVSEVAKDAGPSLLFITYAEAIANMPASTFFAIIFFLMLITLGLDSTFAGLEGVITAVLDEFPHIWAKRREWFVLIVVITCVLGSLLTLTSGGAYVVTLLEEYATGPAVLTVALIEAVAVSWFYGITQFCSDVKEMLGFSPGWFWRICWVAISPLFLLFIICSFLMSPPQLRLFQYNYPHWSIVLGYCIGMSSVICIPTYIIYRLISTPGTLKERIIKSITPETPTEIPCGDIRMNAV
T2 sequence (Q63380 1-617): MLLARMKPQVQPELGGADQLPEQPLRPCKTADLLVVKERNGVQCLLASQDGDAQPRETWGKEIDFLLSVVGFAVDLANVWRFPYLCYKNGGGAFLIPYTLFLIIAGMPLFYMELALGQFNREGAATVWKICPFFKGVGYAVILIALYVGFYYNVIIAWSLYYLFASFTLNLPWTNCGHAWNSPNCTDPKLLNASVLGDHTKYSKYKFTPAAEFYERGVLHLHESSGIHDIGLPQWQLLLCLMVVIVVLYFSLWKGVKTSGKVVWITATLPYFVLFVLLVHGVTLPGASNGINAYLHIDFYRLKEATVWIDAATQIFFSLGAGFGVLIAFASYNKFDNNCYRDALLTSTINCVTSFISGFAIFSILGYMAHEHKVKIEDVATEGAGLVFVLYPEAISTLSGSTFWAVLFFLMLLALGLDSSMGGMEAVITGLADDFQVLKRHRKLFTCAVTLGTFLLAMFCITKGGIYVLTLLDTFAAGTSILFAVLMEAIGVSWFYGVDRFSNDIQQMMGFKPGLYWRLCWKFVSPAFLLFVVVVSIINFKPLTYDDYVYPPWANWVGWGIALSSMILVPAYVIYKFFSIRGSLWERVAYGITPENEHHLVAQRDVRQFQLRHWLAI

Take `CCOC(=O)C12Cc3ccccc3C(CN(C(=O)Nc3ccccc3)C1)C2=O` (stereo not drawn): the melting point was in the range of 199 to 203 °C.

`CCOC(=O)C12Cc3ccc(C#N)cc3C(CN(Cc3ccccc3)C1)C2=O` (stereo not drawn) had a melting point of 158 to 160 °C.

For `CCOC(=O)C12Cc3ccccc3C(CN(C)C1)C2=O` (stereo not drawn) [Compound 9, Ethyl-N-methyl-11-oxo-1,3,4,6-tetrahydro-1,5-methano-3-benzazocine-5(2H)-carboxylate hydrochloride], the “5-HT re-uptake [10 μm], % inhibition” value at 5-HT re-uptake is given as 77%. Further, the “NA re-uptake [10 μm], % inhibition” value on NA re-uptake is listed as 80%.

For `CCOC(=O)C12Cc3ccccc3C(CN(Cc3ccccc3)C1)C2=O` (stereo not drawn), the melting point lay within 117 to 119 °C.

In turn, `CCOC(=O)C12Cc3cc(OC)ccc3C(CN(Cc3ccccc3)C1)C2=O` (stereo not drawn) registered a melting point of 84 to 85 °C.

One may read the melting point as the temperature of the solid-liquid transition.
